Consider seven molecules from article PMC5880945, “D-Arg^0-Bradykinin-Arg-Arg, a Latent Vasoactive Bradykinin B2 Receptor Agonist Metabolically Activated by Carboxypeptidases” (Frontiers in Pharmacology, 2018).

Entries after “also recorded” stand apart in the source; their conditions may differ. Square brackets hold non-standard residues; d marks the D form. Ends that are not written are not given here.

The IC50 is the point on the concentration scale where inhibition reaches its midpoint.

Assay [1] deals with anesthetized rats. Put plainly: In vivo hemodynamics in anesthetized rats pretreated with icatibant or peptidase inhibitors. Also noted: species or system male Sprague-Dawley rats. The settings on record: for Mean arterial blood pressure, basal after pre-treatment / Heart rate, basal after pre-treatment: 15 min after i.v. pretreatment, mean ± SEM, n = 10 icatibant, 9 enalaprilat, 8 Plummer’s, 10 combination; for Mean arterial blood pressure, basal after pre-treatment: untreated control 93.2 ± 3.3 (n = 13), ANOVA N.S.; for Heart rate, basal after pre-treatment: untreated control 352 ± 10 (n = 13), ANOVA P < 0.001, * icatibant, ** others. The method, then: All surgical and experimental procedures were reviewed and approved by the Animal Care and Handling Committee of Laval University, in accordance with the Canadian Council on Animal Care. Experiments were performed on male Sprague-Dawley rats (300–375 g) purchased from Charles River Laboratories (St-Constant, QC, Canada). The rats were housed in a light-controlled (12:12-h light-dark cycle (lights on at 0600)) and temperature-regulated room (22 ± 1°C). Animals had free access to normal chow diet and tap water. They were allowed to acclimate to their environmental conditions for 1 week prior to being studied. At the end of the acclimation period, the rats were anesthetised with sodium pentobarbital (50 mg kg^-1, i.p., supplemented as required) and had one catheter implanted into the right jugular vein [for intravenous (i.v.) injection] and one into the left femoral artery [for direct and continuous measurement of blood pressure and heart rate as previously described ([Jean et al., 2016])]. Experiments started at least 20 min following the end of surgery in anesthetised rats.
The mechanism subserving the cardiovascular responses to random i.v. injections of r-BK and r-BK-RR at the dose of 1.6 μg/kg, was evaluated in rats pretreated with specific antagonists. In these experiments, the rats were separated in four groups depending on the antagonist tested, and the cardiovascular responses to the peptides agonists were compared with those elicited in the untreated control group of rats. In the first group of treated rats, the long acting and selective B2R antagonist, icatibant (Hoe 140) (D-Arg-[Hyp^3, Thi^5, D-Tic^7, Oic^8]) bradykinin ([Hock et al., 1991]; [Wirth et al., 1991]; [Rhaleb et al., 1992]; [Marceau et al., 1994]) was intravenously administered as bolus (75 μg/kg, 0.1 ml) following a 10 min period of baseline measurements of heart rate and blood pressure. Fifteen minutes later, recording changes in blood pressure and heart rate elicited by i.v. injection of peptide vehicle (saline-BSA 0.1%) followed by random injections of r-BK and r-BK-RR, were made as described above. The next peptide was administered once all recorded cardiovascular parameters had returned to baseline after the previous injection. Further experiments were made in a second group of rats pretreated with the ACE inhibitor, enalaprilat. In these experiments, enalaprilat was intravenously administered as bolus ([…], 0.1 ml) 15 min before the i.v. injections of peptide vehicle and both customized peptides, as above. Further experiments were also carried out in rats pretreated with the Plummer’s inhibitor (mercaptomethyl-3-guanidinoethylthiopropanoic acid) a high affinity inhibitor of arginine carboxypeptidases that is an arginine analog ([Plummer and Ryan, 1981]). The inhibitor was intravenously administered as bolus (0.75 mg/kg, 0.1 ml) followed 15 min later by the i.v. injections of saline-BSA 0.1%, and then r-BK and -r-BK-RR (1.6 μg/kg) in random order. A fourth group of rats was pretreated with a combined i.v. injection of enalaprilat (0.1 mg/kg) and the Plummer’s inhibitor (0.75 mg/kg) 15 min before the randomized i.v. injections of both customized peptides, as above. The doses of different inhibitors were based on preliminary experiments and from previous studies performed by us and others ([Ishida et al., 1989]; [Wirth et al., 1991]; [Muto et al., 2003]; [Jean et al., 2016]). At the end of the experiments the rats were euthanized with an overdose of sodium pentobarbital (240 mg/kg, i.v.).
Results are presented as means ± SEM. Radioligand binding data were fitted by non-linear regression to a one-site competition equation using a least-square method (Prism 5.0, GraphPad Software Inc., San Diego, CA, United States) and IC50 values calculated from this procedure. […]

Assay [2] relates to GFP-tagged rabbit B2R (B2R-GFP). Put plainly: B2R-GFP endocytosis and recycling, epifluorescence microscopy, HEK 293 cells. It is filed as cell-based. Conditions: 30 min vs 3 h of stimulation.
The test system of assay [3] is anesthetized rats. Also noted: method as in 2 sources, one per row (each row's own in cited_ref): ref Jean et al., 2016; Charest-Morin et al., 2017 ||| ref Jean et al., 2016. Conditions: intravenous boluses; ref Jean et al., 2016; Charest-Morin et al., 2017; cited from earlier work.
In assay [4] the test system is human ACE-mCherry fusion protein. The experiment in a line: Competition of a fluorogenic ACE substrate by synthetic kinins (recombinant ACE-mCherry). The format is biochemical. The settings on record: enalaprilat 1 μM; 15 min, 37°C; fluorescence. As to the method:
The source of enzyme was whole HEK 293a cells grown in 24-well plates and transfected as described with a vector coding for the human ACE-mCherry fusion protein, an active enzyme ([Charest-Morin and Marceau, 2016]). The culture medium was removed from cell wells, which were rinsed twice with PBS. The fluorogenic substrate (final concentration 20 μM), and, optionally, a competitor (BK, r-BK, or r-BK-RR in variable concentrations, or the ACE inhibitor enalaprilat 1 μM) were added in 250 μl PBS in each well; the plates were then incubated for 15 min at 37°C. At this point, the well supernatants were transferred in Eppendorf tubes, centrifuged 30 s at 12500 rpm to remove debris and 100 μl of this fluid transferred in wells of 96-well plate (black background) to read the fluorescence (excitation 320 nm, emission 420 nm) using a TECAN Infinite® 200 PRO microplate reader. Results were expressed as the percent of the fluorescence in wells containing ACE-mCherry and the substrate without competitors. Controls included mock-transfected cells and enalaprilat-treated cells.

Assay [5] has as its system ACE (two separate catalytic sites). Conditions: ref Araujo et al., 2000; cited from earlier work. The source says: The source of enzyme was whole HEK 293a cells grown in 24-well plates and transfected as described with a vector coding for the human ACE-mCherry fusion protein, an active enzyme ([Charest-Morin an ...
Assay [6] has as its target T1, endogenous B2R of the human isolated umbilical vein (human (endogenous in umbilical vein), UniProt P30411 1-391).
T1 sequence (looked up): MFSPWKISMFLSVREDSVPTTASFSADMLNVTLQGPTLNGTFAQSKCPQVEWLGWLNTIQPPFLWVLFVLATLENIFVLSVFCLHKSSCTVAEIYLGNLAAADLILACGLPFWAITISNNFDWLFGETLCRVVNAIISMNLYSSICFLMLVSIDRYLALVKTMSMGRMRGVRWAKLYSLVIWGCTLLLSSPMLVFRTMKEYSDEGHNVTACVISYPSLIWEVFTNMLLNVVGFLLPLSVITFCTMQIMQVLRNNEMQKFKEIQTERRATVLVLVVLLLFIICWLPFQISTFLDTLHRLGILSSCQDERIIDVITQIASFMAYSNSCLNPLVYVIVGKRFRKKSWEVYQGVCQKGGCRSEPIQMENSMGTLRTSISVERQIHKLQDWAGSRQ
The experiment in a line: cell-based or functional assay.

In assay [7] the target is T2, myc-tagged rat B2R construction (rat, UniProt P25023 1-396).
T2 construct: bradykinin B2 receptor, rat; also called rat myc-B2R; rat recombinant myc-B2R; source: HEK 293 cells stably expressing the construction, adherent intact cells
T2 sequence (looked up): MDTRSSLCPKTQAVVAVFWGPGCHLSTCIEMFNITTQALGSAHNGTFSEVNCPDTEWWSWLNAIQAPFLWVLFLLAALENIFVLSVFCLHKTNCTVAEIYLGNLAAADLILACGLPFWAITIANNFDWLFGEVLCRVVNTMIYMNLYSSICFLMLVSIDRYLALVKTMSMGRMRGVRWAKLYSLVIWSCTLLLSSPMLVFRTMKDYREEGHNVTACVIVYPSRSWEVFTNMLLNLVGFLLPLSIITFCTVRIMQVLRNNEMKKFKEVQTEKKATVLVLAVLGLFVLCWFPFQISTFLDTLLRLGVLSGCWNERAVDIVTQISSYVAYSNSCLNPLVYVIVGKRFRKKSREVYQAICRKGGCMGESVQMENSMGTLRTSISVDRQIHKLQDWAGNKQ
Put plainly: radioligand binding; competition of the binding of 3 nM [^3H]BK to adherent intact HEK 293 cells stably expressing myc-tagged rat B2R by unlabeled peptides; 0°C; peptidase inhibitors including captopril and PMSF; one-site competition fit. The settings on record: one partner purified.

For the molecule `N=C(N)NCCSCC(CS)C(=O)O` (stereo not shown) [Plummer’s inhibitor, mercaptomethyl-3-guanidinoethylthiopropanoic acid, reference compound], in the assay with anesthetized rats [1], the “Mean arterial blood pressure, basal after pre-treatment” value (shortened to “Mean arterial blood pressure, basal”) turned out to be 90.3 ± 3.6 and the “Heart rate, basal after pre-treatment” value was 407 ± 10^∗∗.

In the case of “D-Arg-[Hyp3,Thi5,D-Tic7,Oic8]bradykinin [Icatibant, reference compound]”, in the assay with anesthetized rats [1], the “Mean arterial blood pressure, basal” value is listed as 93.7 ± 3.3 and the “Heart rate, basal after pre-treatment” value is recorded as 396 ± 10^∗. In the assay with anesthetized rats [1] (icatibant i.v. pretreatment, r-BK or r-BK-RR 1.6 μg/kg i.v.), the “inhibition of hypotensive effects of r-BK and r-BK-RR, in words” value is given as “their effects were inhibited by icatibant”.

In the case of “D-Arg-[Hyp^3, Igl^5, Oic^7, Igl^8]-BK [B-9972, reference compound]”, the “persistence of B2R-GFP endocytosis, in words” value in assay [2] is reported as “persistent morphologic response; also recorded: prolonged endocytosis of B2R-GFP”. Also, the “duration of action vs BK in vivo, in words” value in the assay on anesthetized rats [3] was “not remarkably more longer acting than BK in vivo”.

On to `C[C@H](N[C@@H](CCc1ccccc1)C(=O)O)C(=O)N1CCC[C@H]1C(=O)O` [Enalaprilat, enalaprilat, reference compound], for which, in assay [4], the “hydrolysis of ACE substrate by ACE-expressing cells treated with inhibitor, in words” value is “did not catalyze the reaction”. In the assay on anesthetized rats [1], the “Mean arterial blood pressure, basal” value was found to be 89.8 ± 4.1 and the “Heart rate, basal after pre-treatment” value is 412 ± 11^∗∗.

Regarding “Abz-Phe-Arg-Lys(Dnp)-Pro-OH [internally quenched fluorogenic ACE substrate]”, the “affinity for the two catalytic sites of ACE, in words” value in assay [5] was “approximately equal low micromolar affinity”.

B1: D-Arg^0-BK (peptide)
peptide: [dR]RPPGFSPFR
notes: D-Arg^0, N-terminal extension (a D-residue); bradykinin, whole nonapeptide; also called r-BK; D-Arg^0-bradykinin; source: synthetic peptide (CanPeptide, Inc., solid-phase, ≥98.3% pure)
As for B1, in assay [6], the “contractile EC50, human isolated umbilical vein, control” value is 62.4 nM; the “contractile EC50, human isolated umbilical vein, with Plummer’s inhibitor 1 μM” value amounted to 68.4 nM; the “contractile EC50, human isolated umbilical vein, with enalaprilat 1 μM” value is 61.6 nM; the “contractile EC50, human isolated umbilical vein, with enalaprilat 1 μM + Plummer’s inhibitor 1 μM” value worked out at 45.1 nM. The IC50 in assay [7] was 13.3 nM.

B2: D-Arg^0-BK-Arg-Arg (peptide)
peptide: [dR]RPPGFSPFRRR
notes: D-Arg^0, N-terminal extension (a D-residue); bradykinin, whole nonapeptide; Arg-Arg, C-terminal extension; also called r-BK-RR; D-Arg^0-Bradykinin-Arg-Arg; source: synthetic peptide (CanPeptide, Inc., solid-phase, ≥98.3% pure)
For B2, in assay [6], the “contractile EC50, human isolated umbilical vein, with enalaprilat 1 μM (ACE blockade)” value worked out at 1510 nM and the “contractile EC50, human isolated umbilical vein, with enalaprilat 1 μM + Plummer’s inhibitor 1 μM (ACE blockade)” value was 1760 nM. Besides, the IC50 in assay [7] was 1050 nM.
